From patent US10881679B2, “Application of a phillyrin/phillygeninin composition in preparing a medicine or health care product for alleviating or/and treating viral diseases, and medicine or health care product for treating viral diseases” (priority 2014, dated 2021)
Marks after values point to notes of the source that are not given here.

Legend:
[1] = system: adenovirus (ADV); assay: Impact on virus-induced cytopathic effect in Vero cells (MTT): ADV; type: cell-based; conditions: ADV 100TCID50, Vero, 72 h; drug g/L as Table 1-2
[2] = system: enterovirus EV71; assay: Impact on virus-induced cytopathic effect in Vero cells (MTT): EV71; type: cell-based; conditions: EV71 100TCID50, Vero, 72 h; drug g/L as Table 1-2
[3] = system: rabbit fever induced by typhoid and paratyphoid vaccine; assay: Rabbit fever induced by typhoid and paratyphoid vaccine; type: in vivo, Japanese big-ear white rabbits; conditions: 5.2 mg/kg i.g.
Description: Male Japanese big-ear white rabbits with a weight 1.5˜2.0 kg were used. Before the test, WSC-411P portable digital thermometer was used to measure the normal rectal temperature twice (with certain interval for each time), and the average value was taken as the normal body temperature of rabbits. […] Each group has 6 rabbits, and the test was repeated 3 times for each group. Rabbits were fixed into a fixator. The blank control group was intravenously injected with normal saline of 1 ml/kg via the ear margin; The model control group and each drug group were intravenously injected with typhoid and paratyphoid vaccines of 0.8 ml/kg via the ear margin. After the body temperatures of the rabbits increased by 1° C. or more (requiring about 1˜1.5 h, and this test was limited to 1 h), the blank control group and the model group were administered intragastrically with 0.5% carboxymethycellulose of 1 ml/kg, and the drug groups were administered intragastrically with phillyrin/phillygeninin compositions and paracetamol respectively. The rectal temperature was measured after administration for 30, 60, 90, 120, 180 and 240 min to observe the changes in the body temperature, and difference between the groups was compared by inter-group t test processing through antipyretic percentage.

[4] = system: Herpes zoster simplex viruses type I (HSV-I); assay: Impact on virus-induced cytopathic effect in Vero cells (MTT): HSV-I; type: cell-based; conditions: HSV-I 100TCID50, Vero, 72 h; drug g/L as Table 1-2
[5] = system: rat paw swelling induced by carrageenin; assay: Rat paw swelling induced by carrageenin; type: in vivo, Wistar rats; conditions: 10.0 mg/kg
Description: Each group has 10 rats. Rats in each group were all administered by […] through the sublingual vein. Normal volume of the right hind paw of each rat in each group was measured in capillary magnification measurement method. In order to avoid errors, the measurement should be carried out in a fixed position and operated by the same person before and after administration. A mean of the two measurement values was taken as the normal volume of the right hind paw of a rat before administration. […] The difference between the groups was compared by inter-group t test processing through the difference percentage (swelling ratio) of the paw volume before and after the induced rat inflammation. [formula] Results

[6] = system: Coxsackie virus B3 (CVB3); assay: Impact on virus-induced cytopathic effect in Vero cells (MTT): CVB3; type: cell-based; conditions: CVB3 100TCID50, Vero, 72 h; drug g/L as Table 1-2
[7] = system: influenza virus; type: in vivo, Kunming mice; conditions: 13.0 mg/kg/d i.g. 5 days
[8] = system: parainfluenza virus; type: in vivo, Kunming mice; conditions: 13.0 mg/kg/d i.g. 5 days
[9] = system: respiratory syncytial virus (RSV); assay: Impact on virus-induced cytopathic effect in Vero cells (MTT): RSV; type: cell-based; conditions: RSV 100TCID50, Vero, 72 h; drug g/L as Table 1-2
[10] = system: parainfluenza virus; type: in vivo, Kunming mice; conditions: 13.0 mg/kg/d i.g. 5 days; remark: listed apart in the source
[11] = system: Vero cells; assay: Cytotoxicity test (MTT) on Vero cells; type: cell-based, African green monkey; conditions: 72 h
Description: Cytotoxicity test: the drugs were diluted according to the concentrations shown in table 1-1 for determination of cytotoxicity. […] In addition, 6 wells were set up as normal control group (without drugs) while another 6 pores as blank control group (medium only). Cells were grown in a 37° C. incubator under 5% CO2. […] After 72 h, 20 μL MTT solution (5 mg·mL^−1) was added into each well to continue incubation for 4 h. The culture medium in each well was sucked and discarded, 100 μL DMSO was added to each well. Then the culture was shaken for 5 min, measured OD value at 492 nm to calculate the cell survival ratio. The cell survival ratio was analyzed using a Probit regression model in SPSS 18.0 statistical software, and the maximal nontoxic concentration (TC0) and median toxic concentration (TC50) of drugs against Vero cells were calculated.

[12] = system: Coxsackievirus A16 (CoxA16); assay: Impact on virus-induced cytopathic effect in Vero cells (MTT): CoxA16; type: cell-based; conditions: CoxA16 100TCID50, Vero, 72 h; drug g/L as Table 1-2
[13] = system: rat fever induced by beer yeast; assay: Rat fever induced by beer yeast (Saccharomyces cerevisiae); type: in vivo, Wistar rats; conditions: 10 mg/kg i.g.
Description: Male Wistar rats with a weight of 180˜200 g were used. Normal anal temperature of each rat was measured twice (at a certain interval) with a WSC-411P portable digital thermometer, and a mean of the two measurement values was taken as a normal body temperature of the rat. Then, 300 rats with body temperature at 36.5˜38° C. were selected and randomly divided into 30 groups by weight: model groups (0.5% methyl cellulose), phillyrin/phillygeninin compositions A and B that are divided into low, medium and high dose groups (2.5, 5, 10 mg/kg) respectively, phillyrin groups (13 mg/kg), phillygeninin groups (13 mg/kg), and positive drug paracetamol groups (100 mg/kg). Each group has 10 rates, and the test is repeated 3 times for each group. 10 mL/kg of 10% fresh Saccharomyces cerevisiae suspension was subcutaneously injected to the back of the rats of each group to induce fever. After administration of 10% fresh Saccharomyces cerevisiae suspension for 6.0 h, the phillyrin/phillygeninin composition and the paracetamol positive drug were administered by intragastric administration, and the same volume of 0.5% methyl cellulose is administrated to the model group by intragastric administration. Rectal temperatures were respectively measured at 1, 2, 3 and 4 h after the administration. Changes in the body temperature were observed and difference between the groups was compared by inter-group t test processing through antipyretic percentage. The above test was repeated totally 3 times.

[14] = 15 min after inflammation induction
[15] = 30 min after inflammation induction
[16] = 60 min after inflammation induction
[17] = 120 min after inflammation induction
[18] = 180 min after inflammation induction
[19] = 240 min after inflammation induction
[20] = 300 min after inflammation induction
[21] = 360 min after inflammation induction

`COc1cc([C@H]2OC[C@H]3[C@@H]2CO[C@H]3c2ccc(OC)c(OC)c2)ccc1O` [Phillygeninin, phillygeninin] was tested, and the “antiviral effective rate (ER %)” value [1] was 50.61%, the “antiviral effective rate (ER %)” value [2] was 75.86** % and the Body temperature ([3]; 30 min after administration) was 41.06 ± 0.26 °C. The “antipyretic percentage (%)” value ([3]; 30 min after administration) was −0.10 ± 0.11%, the Body temperature ([3]; 60 min after administration) was 40.86 ± 0.21 °C and the “antipyretic percentage (%)” value ([3]; 60 min after administration) was −0.49 ± 0.10%. For the same compound, the Body temperature ([3]; 90 min after administration) was 40.74 ± 0.22 °C, the “antipyretic percentage (%)” value ([3]; 90 min after administration) was −0.77 ± 0.22% and the Body temperature ([3]; 120 min after administration) was 40.65 ± 0.27 °C. For the same compound, the “antipyretic percentage (%)” value ([3]; 120 min after administration) was −1.00 ± 0.18 %, the Body temperature ([3]; 180 min after administration) was 40.49 ± 0.23 °C and the “antipyretic percentage (%)” value ([3]; 180 min after administration) was −1.39 ± 0.17 %. The Body temperature ([3]; 240 min after administration) was 40.30 ± 0.25 °C, the “antipyretic percentage (%)” value ([3]; 240 min after administration) was −1.85 ± 0.15 % and the “antiviral effective rate (ER %)” value [4] was 84.30** %. For the same compound, the “Swelling percentage (%)” value [5, 14] was 14.9 ± 6.13%, the “Swelling percentage (%)” value [5, 15] was 21.9 ± 9.72% and the “Swelling percentage (%)” value [5, 16] was 27.1 ± 13.5%. For the same compound, the “Swelling percentage (%)” value [5, 17] was 30.7 ± 10.2 %, the “Swelling percentage (%)” value [5, 18] was 33.8 ± 12.1 % and the “Swelling percentage (%)” value [5, 19] was 31.0 ± 11.3 %. For the same compound, the “Swelling percentage (%)” value [5, 20] was 35.8 ± 13.5 %, the “Swelling percentage (%)” value [5, 21] was 36.4 ± 10.2% and the “antiviral effective rate (ER %)” value [6] was 50.89%. For the same compound, the Lung index [7] was 1.302 ± 0.046, the “Lung index inhibition rate” value [7] was 12.51 and the Lung index [8] was 1.357 ± 0.050. The “Lung index inhibition rate” value [8] was 14.69, the “antiviral effective rate (ER %)” value [9] was 80.88** % and the “Hemagglutination titer (InX)” value [10] was 23.79. For the same compound, the “Inhibition rate (%) of hemagglutination titer” value [10] was 28.15%, the “half toxic concentration (TC50)” value [11] was 297 µg/mL and the “maximal non-toxic concentration (TC0)” value [11] was 0.011 g/L. The “antiviral effective rate (ER %)” value [12] was 50.04%, the Body temperature ([13]; 1 h after administration) was 39.31 ± 0.48 °C and the “antipyretic percentage (%)” value ([13]; 1 h after administration) was −0.33 ± 0.41%. For the same compound, the Body temperature ([13]; 2 h after administration) was 39.04 ± 0.45 °C, the “antipyretic percentage (%)” value ([13]; 2 h after administration) was −0.69 ± 0.93 % and the Body temperature ([13]; 3 h after administration) was 38.91 ± 0.40 °C. For the same compound, the “antipyretic percentage (%)” value ([13]; 3 h after administration) was −1.03 ± 1.18 %, the Body temperature ([13]; 4 h after administration) was 38.70 ± 0.31 °C and the “antipyretic percentage (%)” value ([13]; 4 h after administration) was −1.55 ± 1.23 %.

For `COc1ccc([C@H]2OCC3C2CO[C@H]3c2ccc(O[C@@H]3OC(CO)[C@@H](O)[C@H](O)C3O)c(OC)c2)cc1OC` (stereo partly drawn) [phillyrin], the “antiviral effective rate (ER %)” value [1] was 75.14** %, the “antiviral effective rate (ER %)” value [2] was 84.85** % and the Body temperature ([3]; 30 min after administration) was 40.83 ± 0.26 °C. The “antipyretic percentage (%)” value ([3]; 30 min after administration) was −0.37 ± 0.15%, the Body temperature ([3]; 60 min after administration) was 40.58 ± 0.21 °C and the “antipyretic percentage (%)” value ([3]; 60 min after administration) was −0.61 ± 0.12%. The Body temperature ([3]; 90 min after administration) was 40.43 ± 0.22 °C, the “antipyretic percentage (%)” value ([3]; 90 min after administration) was −0.97 ± 0.27% and the Body temperature ([3]; 120 min after administration) was 40.37 ± 0.27 °C. For the same compound, the “antipyretic percentage (%)” value ([3]; 120 min after administration) was −1.13 ± 0.14 %, the Body temperature ([3]; 180 min after administration) was 40.16 ± 0.23 °C and the “antipyretic percentage (%)” value ([3]; 180 min after administration) was −1.65 ± 0.12 %. The Body temperature ([3]; 240 min after administration) was 39.92 ± 0.25 °C, the “antipyretic percentage (%)” value ([3]; 240 min after administration) was −2.22 ± 0.11 % and the “antiviral effective rate (ER %)” value [4] was 85.00** %. For the same compound, the “Swelling percentage (%)” value [5, 14] was 12.9 ± 8.41%, the “Swelling percentage (%)” value [5, 15] was 19.9 ± 9.55% and the “Swelling percentage (%)” value [5, 16] was 21.8 ± 11.8 %. For the same compound, the “Swelling percentage (%)” value [5, 17] was 28.9 ± 14.0 %, the “Swelling percentage (%)” value [5, 18] was 30.8 ± 15.4 % and the “Swelling percentage (%)” value [5, 19] was 29.9 ± 11.1 %. The “Swelling percentage (%)” value [5, 20] was 33.5 ± 10.0 %, the “Swelling percentage (%)” value [5, 21] was 32.2 ± 11.9 % and the “antiviral effective rate (ER %)” value [6] was 75.27** %. For the same compound, the Lung index [7] was 1.280 ± 0.040, the “Lung index inhibition rate” value [7] was 14.00 and the Lung index [8] was 1.335 ± 0.062. For the same compound, the “Lung index inhibition rate” value [8] was 16.10, the “antiviral effective rate (ER %)” value [9] was 80.40** % and the “Hemagglutination titer (InX)” value [10] was 23.17. The “Inhibition rate (%) of hemagglutination titer” value [10] was 30.01%, the “half toxic concentration (TC50)” value [11] was 550 µg/mL and the “maximal non-toxic concentration (TC0)” value [11] was 0.0066 g/L. The “antiviral effective rate (ER %)” value [12] was 75.08** %, the Body temperature ([13]; 1 h after administration) was 39.13 ± 0.52 °C and the “antipyretic percentage (%)” value ([13]; 1 h after administration) was −0.60 ± 0.39%. The Body temperature ([13]; 2 h after administration) was 38.77 ± 0.42 °C, the “antipyretic percentage (%)” value ([13]; 2 h after administration) was −0.92 ± 0.93 % and the Body temperature ([13]; 3 h after administration) was 38.63 ± 0.40 °C. The “antipyretic percentage (%)” value ([13]; 3 h after administration) was −1.29 ± 1.18 %, the Body temperature ([13]; 4 h after administration) was 38.46 ± 0.31 °C and the “antipyretic percentage (%)” value ([13]; 4 h after administration) was −1.70 ± 1.23 %.
